# Laboratory results taken from US11083725B2 (priority 2014, dated 2021).
# Key:
# CA09 = assay: microbe, parasite or virus in culture; type: cell-based, influenza virus H1N1 strain A/CA/04/2009; conditions: NHBE, read-out: TCID50 (per mL)
# NHBE cells = assay: Biolog metabolic array: substrate use by NHBE cells with or without CA09 infection; type: cell-based, human; conditions: for Substrate use, 590 nm absorbance normalized to zero hour, 0 hr: Biolog PMM2, 0 hr; for Substrate use, 590 nm absorbance normalized to zero hour, 1 hr: Biolog PMM2, 1 hr; for Substrate use, 590 nm absorbance normalized to zero hour, 5 hr: Biolog PMM2, 5 hr; for Substrate use, 590 nm absorbance normalized to zero hour, 7 hr: Biolog PMM2, 7 hr
# [1] = Control (uninfected) NHBE cells
# [2] = Virus (CA09-infected NHBE cells, MOI 1)
# [3] = Virus: CA09-infected NHBE cells, MOI 1, Biolog PMM2
# [4] = Virus (CA09, MOI 1) infected NHBE cells
# [5] = Virus (CA09-infected, MOI 1) NHBE cells
smiles,measurement,setting,value
O=C(CO)[C@@H](O)[C@@H](O)[C@H](O)[C@H](O)CO [D-mannoheptulose],log reduction at 10 pM,CA09,0
same,log reduction at 0.0001 µM,CA09,0.76
same,log reduction at 0.001 µM,CA09,0.56
same,log reduction at 0.01 µM,CA09,0
same,log reduction at 0.1 µM,CA09,0.25
same,log reduction at 1 µM,CA09,0.88
same,log reduction at 10 µM,CA09,0.4
same,log reduction at 100 µM,CA09,-0.03
O=C(O)c1nn(Cc2ccc(Cl)cc2Cl)c2ccccc12 [Lonidamine],log reduction at 10 pM,CA09,0.94
same,log reduction at 0.0001 µM,CA09,0.54
same,log reduction at 0.001 µM,CA09,0.54
same,log reduction at 0.01 µM,CA09,0.67
same,log reduction at 0.1 µM,CA09,0.24
same,log reduction at 1 µM,CA09,0.24
same,log reduction at 10 µM,CA09,0.18
same,log reduction at 100 µM,CA09,0.65
O=C(O)C(O)C(O)C(=O)O (centres unmarked) [m-Tartaric Acid],"590 nm absorbance normalized to zero hour (substrate use), 0 hr",NHBE cells; [1],1.00
same,"590 nm absorbance normalized to zero hour (substrate use), 1 hr",NHBE cells; [1],1.39
same,"590 nm absorbance normalized to zero hour (substrate use), 2 hr",NHBE cells; [1],1.72
same,"590 nm absorbance normalized to zero hour (substrate use), 3 hr",NHBE cells; [1],2.14
same,"590 nm absorbance normalized to zero hour (substrate use), 4 hr",NHBE cells; [1],2.16
same,"590 nm absorbance normalized to zero hour (substrate use), 6 hr",NHBE cells; [1],3.24
same,"590 nm absorbance normalized to zero hour (substrate use), 8 hr",NHBE cells; [1],2.82
same,"590 nm absorbance normalized to zero hour (substrate use), 9 hr",NHBE cells; [1],2.95
same,"590 nm absorbance normalized to zero hour (substrate use), 10 hr",NHBE cells; [1],2.65
same,"590 nm absorbance normalized to zero hour (substrate use), 11 hr",NHBE cells; [1],2.75
same,"Substrate use, 590 nm absorbance normalized to zero hour, 0 hr",NHBE cells; [1],1.00
same,"Substrate use, 590 nm absorbance normalized to zero hour, 1 hr",NHBE cells; [1],1.39
same,"Substrate use, 590 nm absorbance normalized to zero hour, 5 hr",NHBE cells; [1],2.42
same,"Substrate use, 590 nm absorbance normalized to zero hour, 7 hr",NHBE cells; [1],2.70
same,"590 nm absorbance normalized to zero hour (substrate use), 0 hr",NHBE cells; [2],1.00
same,"590 nm absorbance normalized to zero hour (substrate use), 1 hr",NHBE cells; [2],1.50
same,"590 nm absorbance normalized to zero hour (substrate use), 2 hr",NHBE cells; [2],1.66
same,"590 nm absorbance normalized to zero hour (substrate use), 3 hr",NHBE cells; [2],1.90
same,"590 nm absorbance normalized to zero hour (substrate use), 4 hr",NHBE cells; [2],1.96
same,"590 nm absorbance normalized to zero hour (substrate use), 5 hr",NHBE cells; [2],2.05
same,"590 nm absorbance normalized to zero hour (substrate use), 6 hr",NHBE cells; [2],2.17
same,"590 nm absorbance normalized to zero hour (substrate use), 7 hr",NHBE cells; [2],2.23
same,"590 nm absorbance normalized to zero hour (substrate use), 8 hr",NHBE cells; [2],2.28
same,"590 nm absorbance normalized to zero hour (substrate use), 9 hr",NHBE cells; [2],2.43
same,"590 nm absorbance normalized to zero hour (substrate use), 10 hr",NHBE cells; [2],2.40
same,"590 nm absorbance normalized to zero hour (substrate use), 11 hr",NHBE cells; [2],2.41
same,"590 nm absorbance normalized to zero hour (substrate use), 0 hr",NHBE cells; [3],1.00
same,"590 nm absorbance normalized to zero hour (substrate use), 1 hr",NHBE cells; [3],1.50
same,"590 nm absorbance normalized to zero hour (substrate use), 2 hr",NHBE cells; [3],1.66
same,"590 nm absorbance normalized to zero hour (substrate use), 3 hr",NHBE cells; [3],1.90
same,"590 nm absorbance normalized to zero hour (substrate use), 4 hr",NHBE cells; [3],1.96
same,"590 nm absorbance normalized to zero hour (substrate use), 5 hr",NHBE cells; [3],2.05
same,"590 nm absorbance normalized to zero hour (substrate use), 6 hr",NHBE cells; [3],2.17
same,"590 nm absorbance normalized to zero hour (substrate use), 7 hr",NHBE cells; [3],2.23
same,"590 nm absorbance normalized to zero hour (substrate use), 8 hr",NHBE cells; [3],2.28
same,"590 nm absorbance normalized to zero hour (substrate use), 9 hr",NHBE cells; [3],2.43
same,"590 nm absorbance normalized to zero hour (substrate use), 10 hr",NHBE cells; [3],2.40
same,"590 nm absorbance normalized to zero hour (substrate use), 11 hr",NHBE cells; [3],2.41
O=C(CO)[C@@H](O)[C@H](O)[C@H](O)CO [D-Fructose],"590 nm absorbance normalized to zero hour (substrate use), 1 hr",NHBE cells; [1],2.31
same,"590 nm absorbance normalized to zero hour (substrate use), 2 hr",NHBE cells; [1],2.22
same,"590 nm absorbance normalized to zero hour (substrate use), 3 hr",NHBE cells; [1],1.77
same,"590 nm absorbance normalized to zero hour (substrate use), 4 hr",NHBE cells; [1],2.00
same,"590 nm absorbance normalized to zero hour (substrate use), 6 hr",NHBE cells; [1],1.51
same,"590 nm absorbance normalized to zero hour (substrate use), 8 hr",NHBE cells; [1],3.38
same,"590 nm absorbance normalized to zero hour (substrate use), 9 hr",NHBE cells; [1],4.01
same,"590 nm absorbance normalized to zero hour (substrate use), 10 hr",NHBE cells; [1],3.99
same,"590 nm absorbance normalized to zero hour (substrate use), 11 hr",NHBE cells; [1],4.24
same,"Substrate use, 590 nm absorbance normalized to zero hour, 1 hr",NHBE cells; [1],2.31
same,"Substrate use, 590 nm absorbance normalized to zero hour, 5 hr",NHBE cells; [1],2.59
same,"Substrate use, 590 nm absorbance normalized to zero hour, 7 hr",NHBE cells; [1],3.18
same,"590 nm absorbance normalized to zero hour (substrate use), 1 hr",NHBE cells; [2],0.44
same,"590 nm absorbance normalized to zero hour (substrate use), 2 hr",NHBE cells; [2],0.58
same,"590 nm absorbance normalized to zero hour (substrate use), 3 hr",NHBE cells; [2],0.71
same,"590 nm absorbance normalized to zero hour (substrate use), 4 hr",NHBE cells; [2],0.79
same,"590 nm absorbance normalized to zero hour (substrate use), 5 hr",NHBE cells; [2],1.00
same,"590 nm absorbance normalized to zero hour (substrate use), 6 hr",NHBE cells; [2],1.09
same,"590 nm absorbance normalized to zero hour (substrate use), 7 hr",NHBE cells; [2],1.17
same,"590 nm absorbance normalized to zero hour (substrate use), 8 hr",NHBE cells; [2],1.26
same,"590 nm absorbance normalized to zero hour (substrate use), 9 hr",NHBE cells; [2],1.43
same,"590 nm absorbance normalized to zero hour (substrate use), 10 hr",NHBE cells; [2],1.52
same,"590 nm absorbance normalized to zero hour (substrate use), 11 hr",NHBE cells; [2],1.70
same,"590 nm absorbance normalized to zero hour (substrate use), 1 hr",NHBE cells; [3],0.44
same,"590 nm absorbance normalized to zero hour (substrate use), 2 hr",NHBE cells; [3],0.58
same,"590 nm absorbance normalized to zero hour (substrate use), 3 hr",NHBE cells; [3],0.71
same,"590 nm absorbance normalized to zero hour (substrate use), 4 hr",NHBE cells; [3],0.79
same,"590 nm absorbance normalized to zero hour (substrate use), 5 hr",NHBE cells; [3],1.00
same,"590 nm absorbance normalized to zero hour (substrate use), 6 hr",NHBE cells; [3],1.09
same,"590 nm absorbance normalized to zero hour (substrate use), 7 hr",NHBE cells; [3],1.17
same,"590 nm absorbance normalized to zero hour (substrate use), 8 hr",NHBE cells; [3],1.26
same,"590 nm absorbance normalized to zero hour (substrate use), 9 hr",NHBE cells; [3],1.43
same,"590 nm absorbance normalized to zero hour (substrate use), 10 hr",NHBE cells; [3],1.52
same,"590 nm absorbance normalized to zero hour (substrate use), 11 hr",NHBE cells; [3],1.70
"O=P(O)(O)OC[C@H](O)CO (racemic) [D,L-a-Glycerol Phosphate]","590 nm absorbance normalized to zero hour (substrate use), 0 hr",NHBE cells; [1],1.00
same,"590 nm absorbance normalized to zero hour (substrate use), 1 hr",NHBE cells; [1],0.34
same,"590 nm absorbance normalized to zero hour (substrate use), 2 hr",NHBE cells; [1],0.48
same,"590 nm absorbance normalized to zero hour (substrate use), 3 hr",NHBE cells; [1],0.56
same,"590 nm absorbance normalized to zero hour (substrate use), 4 hr",NHBE cells; [1],0.60
same,"590 nm absorbance normalized to zero hour (substrate use), 6 hr",NHBE cells; [1],0.71
same,"590 nm absorbance normalized to zero hour (substrate use), 8 hr",NHBE cells; [1],0.83
same,"590 nm absorbance normalized to zero hour (substrate use), 9 hr",NHBE cells; [1],0.91
same,"590 nm absorbance normalized to zero hour (substrate use), 10 hr",NHBE cells; [1],0.91
same,"590 nm absorbance normalized to zero hour (substrate use), 11 hr",NHBE cells; [1],1.05
same,"Substrate use, 590 nm absorbance normalized to zero hour, 0 hr",NHBE cells; [1],1.00
same,"Substrate use, 590 nm absorbance normalized to zero hour, 1 hr",NHBE cells; [1],0.34
same,"Substrate use, 590 nm absorbance normalized to zero hour, 5 hr",NHBE cells; [1],0.70
same,"Substrate use, 590 nm absorbance normalized to zero hour, 7 hr",NHBE cells; [1],0.79
same,"Substrate use, 590 nm absorbance normalized to zero hour, 0 hr",NHBE cells; [4],1.00
same,"Substrate use, 590 nm absorbance normalized to zero hour, 1 hr",NHBE cells; [4],2.01
same,"Substrate use, 590 nm absorbance normalized to zero hour, 5 hr",NHBE cells; [4],3.72
same,"Substrate use, 590 nm absorbance normalized to zero hour, 7 hr",NHBE cells; [4],4.18
same,"590 nm absorbance normalized to zero hour (substrate use), 0 hr",NHBE cells; [5],1.00
same,"590 nm absorbance normalized to zero hour (substrate use), 1 hr",NHBE cells; [5],2.01
same,"590 nm absorbance normalized to zero hour (substrate use), 2 hr",NHBE cells; [5],2.64
same,"590 nm absorbance normalized to zero hour (substrate use), 3 hr",NHBE cells; [5],3.07
same,"590 nm absorbance normalized to zero hour (substrate use), 4 hr",NHBE cells; [5],3.24
same,"590 nm absorbance normalized to zero hour (substrate use), 6 hr",NHBE cells; [5],3.99
same,"590 nm absorbance normalized to zero hour (substrate use), 8 hr",NHBE cells; [5],4.43
same,"590 nm absorbance normalized to zero hour (substrate use), 9 hr",NHBE cells; [5],4.93
same,"590 nm absorbance normalized to zero hour (substrate use), 10 hr",NHBE cells; [5],5.12
same,"590 nm absorbance normalized to zero hour (substrate use), 11 hr",NHBE cells; [5],5.62
